Data taken from PMC12663368 (Nature Communications, 2025).

What was measured:
Assay type in all cases: cell-based
[1] = system: SARS-CoV-2 Wuhan-like Lineage A (Mpro Δ23G/T45I); details: for IC50: read-out: Mean of IC50 values ± SD
[2] = system: SARS-CoV-2 Wuhan-like Lineage B (Mpro M49L)
[3] = system: SARS-CoV-2 BA.5 Lineage C (Mpro S144A); details: for IC50: read-out: Mean of IC50 values ± SD
[4] = system: SARS-CoV-2 BA.5 Lineage D (Mpro P252L)
[5] = read-out: Mean of IC50 values ± SD

Row | Compound | Fold-change relative to wild-type [1] | IC50 [1] | Resistance level (class by IC50 fold-change) [2] | Fold-change relative to wild-type [3] | IC50 [3] | Fold-change relative to wild-type [4] | IC50 [4, 5] | Fold-change relative to wild-type [2] | IC50 [2, 5] | Resistance level (class by IC50 fold-change) [4]
1 | CC(C)(C)[C@H](NC(=O)C(F)(F)F)C(=O)N1C[C@H]2[C@@H]([C@H]1C(=O)N[C@H](C#N)C[C@@H]1CCNC1=O)C2(C)C [nirmatrelvir] | 0.18 fold | 1.4 ± 0.1 µM | no meaningful shift | 7.60 fold | 37 ± 0.9 µM | 3.83 fold | 18.6 ± 0.48 µM | – | – | –
2 | Cn1cnc(Cn2c(=O)[nH]/c(=N\c3cc4cn(C)nc4cc3Cl)n(Cc3cc(F)c(F)cc3F)c2=O)n1 [ensitrelvir] | 32.06 fold | 16.7 ± 2.29 µM | – | 28.84 fold | 25.4 ± 8.74 µM | – | – | 60.08 fold | 31.2 ± 1.06 µM | no meaningful shift
3 | remdesivir | – | – | – | – | – | 3.41 fold | – | – | – | –
